Experimental data: patent US20100305134A1, “SPECIFIC INHIBITORS OF PTERIDINE REDUCTASE WITH ANTIPARASITIC ACTION” (priority 2007, published 2010)
Where two headings read alike, the source gives them in different places.

Tests used:
LmDHFR = target: T1, LmDHFR (Leishmania major, UniProt P07382); experiment: biochemical; conditions: NI means no inhibition at 190 μM; read-out: DHFR Lm Ki
T1 construct: made in house
Procedure: (§1) The compounds of the invention were tested against the following enzyme library: TcPTR1, LmPTR1, LmDHFR, LcTS, EcTS, CnTS, hTS, DHFR. The proteins were all purified following the known procedures (ref). The enzymes were purified through chromatographic methods that usually require a prepurification step using a ion exchange resin, than the eluted active fractions were pooled and a second purification step follows were a hydrophobic resin and sometimes a gel filtration resin is used as the final step. The protein is characterized using Mass Spectrometry and Specific Activity and concentration is detected. Moreover Km for the substrates is useful to set up the inhibition experiments. In general the protein is stored at −80° C. and defrozen in small quantities when necessary.

LmPTR1 = target: T2, LmPTR1 (Leishmania major, UniProt Q01782); experiment: biochemical; type: biochemical; conditions: NI means no inhibition at 190 μM; read-out: PTR1 Lm Ki
T2 construct: made in house
T2 sequence (Q01782 1-288): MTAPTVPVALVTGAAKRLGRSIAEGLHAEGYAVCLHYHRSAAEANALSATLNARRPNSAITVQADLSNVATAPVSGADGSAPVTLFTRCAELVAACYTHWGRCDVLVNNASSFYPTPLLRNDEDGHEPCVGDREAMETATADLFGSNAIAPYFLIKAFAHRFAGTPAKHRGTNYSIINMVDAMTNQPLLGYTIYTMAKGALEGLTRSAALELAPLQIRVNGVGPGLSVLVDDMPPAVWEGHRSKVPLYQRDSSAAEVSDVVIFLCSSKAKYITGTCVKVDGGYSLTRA
Procedure: The compounds of the invention were tested against the following enzyme library: TcPTR1, LmPTR1, LmDHFR, LcTS, EcTS, CnTS, hTS, DHFR.

Lm TS = target: T3, Lm TS (Leishmania major, UniProt P07382); experiment: biochemical; type: biochemical
T3 construct: made in house
Procedure: as §1

TcPTR1 = TcPTR1 (Trypanosoma cruzi, UniProt O44029); experiment: PTR1 enzyme inhibition (dihydrofolic acid substrate, NADPH cofactor), TcPTR1; type: biochemical
Procedure: as §1

h DHFR = target: T4, h DHFR (Homo sapiens, UniProt P00374); experiment: DHFR enzyme inhibition (standard DHFR assay), human DHFR; type: biochemical
T4 construct: made in house
T4 sequence (P00374 1-187): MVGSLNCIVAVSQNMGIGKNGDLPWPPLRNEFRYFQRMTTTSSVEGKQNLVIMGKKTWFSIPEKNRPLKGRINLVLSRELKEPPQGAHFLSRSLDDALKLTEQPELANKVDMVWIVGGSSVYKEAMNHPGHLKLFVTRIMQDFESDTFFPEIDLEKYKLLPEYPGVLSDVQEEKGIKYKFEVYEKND
Procedure: as §1

hTS = target: T5, hTS (Homo sapiens, UniProt P04818); experiment: TS enzyme inhibition (standard TS assay), human TS; type: biochemical; conditions: NI means no inhibition at 190 μM; read-out: TS h Ki
T5 construct: made in house
Procedure: as §1

TS = TS enzyme inhibition, three-value table lines (species column not resolvable); type: biochemical; conditions: species column (h or Lm) not resolvable; NI means no inhibition at 190 μM, NI marks ⋄ Δ ▴ undefined; read-out: TS Ki (first value of three-value lines)
[1] = system: PTR1 overexpressing lines; experiment: Parasite growth inhibition, PTR1 overexpressing lines; type: cell-based; conditions: ratio of EC50 from PTR1 overexpressing lines to EC50 from WT lines
[2] = system: Tripanosoma cruzi amastigote form; experiment: Intracellular growth of Tripanosoma cruzi amastigote form; type: cell-based; design: unit of the concentration uncertain; conditions: 72 h exposure, control 100
[3] = NI means no inhibition at 190 μM; read-out: TS Lm Ki
[4] = NI means no inhibition at 190 μM, read-out: PTR1 Tc Ki
[5] = NI means no inhibition at 190 μM, read-out: DHFR h Ki

T5 sequence (P04818 whole entry): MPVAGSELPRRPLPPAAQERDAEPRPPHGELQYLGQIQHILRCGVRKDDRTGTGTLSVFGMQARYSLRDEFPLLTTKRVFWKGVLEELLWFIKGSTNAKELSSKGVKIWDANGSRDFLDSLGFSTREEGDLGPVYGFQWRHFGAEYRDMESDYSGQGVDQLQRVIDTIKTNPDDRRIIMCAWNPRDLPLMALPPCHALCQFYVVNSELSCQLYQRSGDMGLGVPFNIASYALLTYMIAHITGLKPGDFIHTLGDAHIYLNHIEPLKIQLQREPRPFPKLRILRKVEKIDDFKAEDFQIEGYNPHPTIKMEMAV
TcPTR1, sequence (O44029 entry or part of it): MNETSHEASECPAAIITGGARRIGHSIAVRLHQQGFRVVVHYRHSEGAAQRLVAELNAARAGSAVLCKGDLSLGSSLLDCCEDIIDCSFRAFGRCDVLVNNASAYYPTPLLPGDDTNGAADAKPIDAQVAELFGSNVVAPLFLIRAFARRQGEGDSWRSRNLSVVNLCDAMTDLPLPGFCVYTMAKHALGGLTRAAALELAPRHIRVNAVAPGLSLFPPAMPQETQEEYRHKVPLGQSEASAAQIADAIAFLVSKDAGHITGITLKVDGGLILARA
T3 sequence (P07382 whole entry): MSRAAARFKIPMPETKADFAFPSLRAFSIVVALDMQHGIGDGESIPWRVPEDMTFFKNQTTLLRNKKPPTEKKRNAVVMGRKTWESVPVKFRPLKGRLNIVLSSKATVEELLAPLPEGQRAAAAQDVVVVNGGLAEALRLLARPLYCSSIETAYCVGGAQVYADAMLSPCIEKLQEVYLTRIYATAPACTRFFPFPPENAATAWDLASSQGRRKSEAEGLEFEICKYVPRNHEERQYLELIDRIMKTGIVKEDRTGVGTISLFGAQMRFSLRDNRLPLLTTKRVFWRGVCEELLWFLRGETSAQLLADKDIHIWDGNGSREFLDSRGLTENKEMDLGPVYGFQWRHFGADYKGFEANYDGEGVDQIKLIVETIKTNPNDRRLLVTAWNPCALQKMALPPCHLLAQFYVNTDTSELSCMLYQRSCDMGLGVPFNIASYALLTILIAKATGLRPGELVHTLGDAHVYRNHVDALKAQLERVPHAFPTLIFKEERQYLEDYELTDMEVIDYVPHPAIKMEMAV
T1 sequence (P07382 whole entry): as above

Row | Compound | Ki (LmDHFR) | Ki (LmPTR1) | Ki (Lm TS; [3]) | Ki (TcPTR1; [4]) | Ki (h DHFR; [5]) | Ki (hTS) | other results
1 | COC(=O)C1CCN(C(=O)c2ccc(NCc3cnc4nc(N)nc(C)c4n3)cc2)CC1 | 4 µM | 0.1 µM | > 190 µM | 7 µM | 10 µM |  | 
2 | O=C(O)C1CCN(C(=O)c2ccc(NCc3cnc4cccc(C(F)(F)F)c4n3)cc2)CC1 | 40 µM | 7 µM | > 190 µM | 75 µM | 56 µM | 41 µM | 
3 | Cc1cc(C(F)(F)F)cc2nc(-c3ccccc3)c(CNc3ccc(C(=O)N4CCC(C(=O)O)CC4)cc3)nc12 | 17 µM |  | > 190 µM | 20 µM | 54 µM | 13 µM | 
4 | CCOC(=O)c1nc2ccccc2nc1CNc1ccc(C(=O)N2CCC(C(=O)O)CC2C(=O)O)cc1 (stereo not drawn) | 75 µM | > 190 µM | > 190 µM | 38 µM | 24 µM | 15 µM | 
5 | COC(=O)C1CCN(C(=O)c2ccc(NCc3nc4cc(C(F)(F)F)ccc4nc3-c3ccccc3)cc2)C(C(=O)OC)C1 (stereo not drawn) | 88 µM | > 190 µM | > 190 µM | 40 µM | > 190 µM | 13 µM | 
6 | CCOC(=O)C1CCCCN1C(=O)c1ccc(NCc2cnc3ccc(C(F)(F)F)cc3n2)cc1 (stereo not drawn) | 27 µM | 6 µM | 86 µM | 106 µM | > 190 µM | 12 µM | 
7 | COC(=O)C1CCN(C(=O)c2ccc(N(C)Cc3cnc4nc(N)nc(N)c4n3)cc2)CC1 |  |  |  |  |  |  | Ki (Lm TS; read-out: TS Lm Ki; NI means no inhibition at 190 μM): > 190 µM; Ki (h DHFR): 0.8 µM
8 | CN(Cc1cnc2nc(N)nc(N)c2n1)c1ccc(C(=O)NC(CCC(=O)O)C(=O)O)cc1 (stereo not drawn) |  |  |  |  |  |  | Ki (TcPTR1): 0.11 µM
9 | COC(=O)C1CCN(C(=O)c2ccc(N(CCO)Cc3cnc4nc(N)nc(N)c4n3)cc2)CC1 |  |  |  |  |  |  | Ki (TS): 64.5 µM
10 | CN(Cc1cnc2nc(N)nc(N)c2n1)c1ccc(C(=O)N[C@@H](CCC(=O)O)C(=O)O)cc1 [Mtx, methotrexate] |  |  |  |  |  |  | RDR [1]: 104.1
11 | CCc1nc(N)nc(N)c1-c1ccc(Cl)cc1 [Pyr, pyrimetamine] |  |  |  |  |  |  | RDR [1]: 2.3; % amastigotes (medium value) ([2]; 10 (unit uncertain)): 37.4%; % amastigotes (medium value) ([2]; 20 (unit uncertain)): 26.3%
